Assay results as given in PubChem BioAssay (NCI).
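The concentration for 50% growth inhibition is given as GI50. TGI: total growth inhibition.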

Assays:
Assay in all cases: NCI-60 cell line screen, 384-well format
[1] = tested on: DU-145 prostate
[2] = tested on: NCI-H522 lung
[3] = tested on: NCI-H23 lung
[4] = tested on: 786-0 renal
[5] = tested on: MDA-MB-231 breast
[6] = tested on: MDA-MB-468 breast
[7] = tested on: LOX IMVI melanoma
[8] = tested on: COLO 205 colon
[9] = tested on: SF-295 CNS
[10] = tested on: MOLT-4 leukemia
[11] = tested on: HCC-2998 colon
[12] = tested on: SN12C renal
[13] = tested on: CAKI-1 renal
[14] = tested on: BT-549 breast
[15] = tested on: UACC-257 melanoma
[16] = tested on: RPMI-8226 leukemia
[17] = tested on: SF-539 CNS
[18] = tested on: SW-620 colon
[19] = tested on: SNB-19 CNS
[20] = tested on: NCI-H226 lung
[21] = tested on: HOP-62 NSCLC
[22] = tested on: KM12 colon
[23] = tested on: SK-OV-3 ovarian
[24] = tested on: OVCAR-3 ovarian
[25] = tested on: T-47D breast
[26] = tested on: HCT-15 colon
[27] = tested on: A498 renal
[28] = tested on: EKVX NSCLC
[29] = tested on: SR leukemia
[30] = tested on: A549 NSCLC
[31] = tested on: SF-268 CNS
[32] = tested on: MDA-MB-435 melanoma
[33] = tested on: HS 578T breast
[34] = tested on: OVCAR-8 ovarian
[35] = tested on: K-562 leukemia
[36] = tested on: TK-10 renal
[37] = tested on: MCF7 breast
[38] = tested on: HOP-92 NSCLC
[39] = tested on: RXF 393 renal
[40] = tested on: UO-31 renal
[41] = tested on: OVCAR-4 ovarian
[42] = tested on: HT29 colon
[43] = tested on: HL-60(TB) leukemia
[44] = tested on: NCI-H322M lung
[45] = tested on: SK-MEL-28 melanoma
[46] = tested on: OVCAR-5 ovarian
[47] = tested on: M14 melanoma
[48] = tested on: SNB-75 CNS
[49] = tested on: CCRF-CEM leukemia
[50] = tested on: UACC-62 melanoma
[51] = tested on: PC-3 prostate
[52] = tested on: NCI-H460 NSCLC
[53] = tested on: ACHN renal
[54] = tested on: IGROV1 ovarian
[55] = tested on: NCI/ADR-RES ovarian
[56] = tested on: MALME-3M melanoma
[57] = tested on: SK-MEL-5 melanoma

C[C@@H](NC(=O)c1ccc(F)cc1)c1ccc2c(c1)CCN2C(=O)C1CCOCC1
GI50 [1]: > 100 µM | TGI [1]: > 100 µM | GI50 [2]: > 100 µM | TGI [2]: > 100 µM | GI50 [3]: > 100 µM | TGI [3]: > 100 µM | GI50 [4]: > 100 µM | TGI [4]: > 100 µM | GI50 [5]: > 100 µM | TGI [5]: > 100 µM | GI50 [6]: 34.4 µM | TGI [6]: > 100 µM | GI50 [7]: > 100 µM | TGI [7]: > 100 µM | GI50 [8]: > 100 µM | TGI [8]: > 100 µM | GI50 [9]: > 100 µM | TGI [9]: > 100 µM | GI50 [10]: > 100 µM | TGI [10]: > 100 µM | GI50 [11]: > 100 µM | TGI [11]: > 100 µM | GI50 [12]: > 100 µM | TGI [12]: > 100 µM | GI50 [13]: > 100 µM | TGI [13]: > 100 µM | GI50 [14]: > 100 µM | TGI [14]: > 100 µM | GI50 [15]: > 100 µM | TGI [15]: > 100 µM | GI50 [16]: 91.4 µM | TGI [16]: > 100 µM | GI50 [17]: > 100 µM | TGI [17]: > 100 µM | GI50 [18]: > 100 µM | TGI [18]: > 100 µM | GI50 [19]: > 100 µM | TGI [19]: > 100 µM | GI50 [20]: > 100 µM | TGI [20]: > 100 µM | GI50 [21]: > 100 µM | TGI [21]: > 100 µM | GI50 [22]: > 100 µM | TGI [22]: > 100 µM | GI50 [23]: > 100 µM | TGI [23]: > 100 µM | GI50 [24]: > 100 µM | TGI [24]: > 100 µM | GI50 [25]: 58.6 µM | TGI [25]: > 100 µM | GI50 [26]: > 100 µM | TGI [26]: > 100 µM | GI50 [27]: > 100 µM | TGI [27]: > 100 µM | GI50 [28]: > 100 µM | TGI [28]: > 100 µM | GI50 [29]: > 100 µM | TGI [29]: > 100 µM | GI50 [30]: > 100 µM | TGI [30]: > 100 µM | GI50 [31]: > 100 µM | TGI [31]: > 100 µM | GI50 [32]: > 100 µM | TGI [32]: > 100 µM | GI50 [33]: > 100 µM | TGI [33]: > 100 µM | GI50 [34]: > 100 µM | TGI [34]: > 100 µM | GI50 [35]: > 100 µM | TGI [35]: > 100 µM | GI50 [36]: > 100 µM | TGI [36]: > 100 µM | GI50 [37]: > 100 µM | TGI [37]: > 100 µM | GI50 [38]: > 100 µM | TGI [38]: > 100 µM | GI50 [39]: > 100 µM | TGI [39]: > 100 µM | GI50 [40]: > 100 µM | TGI [40]: > 100 µM | GI50 [41]: 80.7 µM | TGI [41]: > 100 µM | GI50 [42]: > 100 µM | TGI [42]: > 100 µM | GI50 [43]: > 100 µM | TGI [43]: > 100 µM | GI50 [44]: > 100 µM | TGI [44]: > 100 µM | GI50 [45]: > 100 µM | TGI [45]: > 100 µM | GI50 [46]: > 100 µM | TGI [46]: > 100 µM | GI50 [47]: > 100 µM | TGI [47]: > 100 µM | GI50 [48]: > 100 µM | TGI [48]: > 100 µM | GI50 [49]: > 100 µM | TGI [49]: > 100 µM | GI50 [50]: > 100 µM | TGI [50]: > 100 µM | GI50 [51]: > 100 µM | TGI [51]: > 100 µM | GI50 [52]: > 100 µM | TGI [52]: > 100 µM | GI50 [53]: > 100 µM | TGI [53]: > 100 µM | GI50 [54]: > 100 µM | TGI [54]: > 100 µM | GI50 [55]: > 100 µM | TGI [55]: > 100 µM | GI50 [56]: > 100 µM | TGI [56]: > 100 µM | GI50 [57]: > 100 µM | TGI [57]: > 100 µM
